For data set [1] the following is noted: Potter et al. 2009; cited from earlier work.
The nature of data set [2]: Human clinical trial, subcutaneous formulation: half life. As to conditions: in vivo, sc, subcutaneously administered formulation. The procedure: In a human clinical trial of a subcutaneously administered formulation in which the mimetic of formula IV was the active pharmaceutical ingredient, the half life of the mimetic of formula IV was determined to be approximately 3 hours. The mimetic of formula IV lead to a mean peak increase in plasma cGMP concentration of 1.7 ng/mL at a dose of 0.3 μg/kg of the mimetic of formula IV as a single, subcutaneous injection.

The target of the next data set is T1, hNPRB (human NPRB) (Homo sapiens, UniProt P20594).
T1 construct: expressed in transfected cells; host or cells: HEK cell line
T1 sequence (P20594 23-1047): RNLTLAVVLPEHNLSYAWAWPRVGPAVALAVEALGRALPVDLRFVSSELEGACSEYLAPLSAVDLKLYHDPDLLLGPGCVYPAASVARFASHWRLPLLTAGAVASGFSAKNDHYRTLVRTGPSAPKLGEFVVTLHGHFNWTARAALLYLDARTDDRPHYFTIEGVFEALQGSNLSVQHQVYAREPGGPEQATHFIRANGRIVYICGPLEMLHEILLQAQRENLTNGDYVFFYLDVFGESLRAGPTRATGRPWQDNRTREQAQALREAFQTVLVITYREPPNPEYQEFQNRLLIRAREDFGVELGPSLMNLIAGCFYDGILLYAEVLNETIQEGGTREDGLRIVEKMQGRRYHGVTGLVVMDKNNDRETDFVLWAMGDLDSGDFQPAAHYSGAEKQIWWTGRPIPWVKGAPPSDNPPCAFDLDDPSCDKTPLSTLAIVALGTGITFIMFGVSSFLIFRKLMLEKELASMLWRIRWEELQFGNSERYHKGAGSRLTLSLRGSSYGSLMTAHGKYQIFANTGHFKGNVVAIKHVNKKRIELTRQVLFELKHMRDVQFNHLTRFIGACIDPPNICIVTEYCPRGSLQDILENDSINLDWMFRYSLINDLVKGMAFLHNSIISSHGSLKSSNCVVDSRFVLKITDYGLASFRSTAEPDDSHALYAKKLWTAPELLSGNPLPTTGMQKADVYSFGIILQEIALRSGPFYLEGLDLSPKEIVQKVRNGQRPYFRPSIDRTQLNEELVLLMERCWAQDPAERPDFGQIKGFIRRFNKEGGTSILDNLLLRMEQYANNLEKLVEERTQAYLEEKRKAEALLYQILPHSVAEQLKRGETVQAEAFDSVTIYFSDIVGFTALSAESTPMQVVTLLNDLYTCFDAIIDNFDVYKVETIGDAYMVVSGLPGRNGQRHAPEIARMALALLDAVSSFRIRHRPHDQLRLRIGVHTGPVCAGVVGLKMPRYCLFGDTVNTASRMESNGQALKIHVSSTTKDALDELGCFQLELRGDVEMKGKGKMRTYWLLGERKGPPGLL
Kind of data set: NPRB functional assay (cGMP generation) in HEK cell line. It is filed as cell-based. Particulars: HEK293, mean ± SD, read-out: hNPRB Function (cGMP) Emax (%).

The next data set concerns the target T2, human NPRA (Homo sapiens, UniProt P16066).
T2 sequence (P16066 33-1061): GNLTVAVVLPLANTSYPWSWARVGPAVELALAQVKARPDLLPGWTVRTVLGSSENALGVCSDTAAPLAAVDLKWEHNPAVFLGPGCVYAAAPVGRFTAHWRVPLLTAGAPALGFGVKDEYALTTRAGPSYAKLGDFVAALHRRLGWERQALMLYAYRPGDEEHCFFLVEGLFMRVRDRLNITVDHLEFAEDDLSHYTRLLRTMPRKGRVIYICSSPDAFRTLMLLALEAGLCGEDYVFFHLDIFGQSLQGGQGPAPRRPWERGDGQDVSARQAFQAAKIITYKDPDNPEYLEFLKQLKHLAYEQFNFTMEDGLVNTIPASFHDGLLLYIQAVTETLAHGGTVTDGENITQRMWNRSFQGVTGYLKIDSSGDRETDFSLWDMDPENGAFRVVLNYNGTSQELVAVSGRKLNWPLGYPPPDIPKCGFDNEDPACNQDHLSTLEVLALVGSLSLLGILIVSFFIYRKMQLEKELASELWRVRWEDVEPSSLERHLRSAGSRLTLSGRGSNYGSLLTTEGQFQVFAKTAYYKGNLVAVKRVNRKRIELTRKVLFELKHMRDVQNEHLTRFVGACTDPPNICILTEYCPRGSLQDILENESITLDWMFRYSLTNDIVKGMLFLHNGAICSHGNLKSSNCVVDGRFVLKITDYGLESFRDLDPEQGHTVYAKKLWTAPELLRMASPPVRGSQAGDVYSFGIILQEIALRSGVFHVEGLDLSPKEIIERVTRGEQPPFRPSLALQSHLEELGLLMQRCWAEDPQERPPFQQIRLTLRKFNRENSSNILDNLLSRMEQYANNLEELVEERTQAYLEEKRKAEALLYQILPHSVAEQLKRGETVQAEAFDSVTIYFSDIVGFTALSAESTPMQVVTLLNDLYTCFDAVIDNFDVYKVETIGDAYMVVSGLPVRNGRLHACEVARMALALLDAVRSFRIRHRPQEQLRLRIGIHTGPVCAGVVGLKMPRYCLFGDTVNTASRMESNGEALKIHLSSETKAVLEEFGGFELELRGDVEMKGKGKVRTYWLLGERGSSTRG
As to the kind of experiment: cGMP generation in HEK cells expressing human NPRA. Particulars: mean ± SD. It is filed as cell-based.

The target of another data set is T3, rat NPRA (Rattus norvegicus, UniProt P18910).
T3 construct: expressed in transfected cells; host or cells: HEK cell line
T3 sequence (P18910 29-1057): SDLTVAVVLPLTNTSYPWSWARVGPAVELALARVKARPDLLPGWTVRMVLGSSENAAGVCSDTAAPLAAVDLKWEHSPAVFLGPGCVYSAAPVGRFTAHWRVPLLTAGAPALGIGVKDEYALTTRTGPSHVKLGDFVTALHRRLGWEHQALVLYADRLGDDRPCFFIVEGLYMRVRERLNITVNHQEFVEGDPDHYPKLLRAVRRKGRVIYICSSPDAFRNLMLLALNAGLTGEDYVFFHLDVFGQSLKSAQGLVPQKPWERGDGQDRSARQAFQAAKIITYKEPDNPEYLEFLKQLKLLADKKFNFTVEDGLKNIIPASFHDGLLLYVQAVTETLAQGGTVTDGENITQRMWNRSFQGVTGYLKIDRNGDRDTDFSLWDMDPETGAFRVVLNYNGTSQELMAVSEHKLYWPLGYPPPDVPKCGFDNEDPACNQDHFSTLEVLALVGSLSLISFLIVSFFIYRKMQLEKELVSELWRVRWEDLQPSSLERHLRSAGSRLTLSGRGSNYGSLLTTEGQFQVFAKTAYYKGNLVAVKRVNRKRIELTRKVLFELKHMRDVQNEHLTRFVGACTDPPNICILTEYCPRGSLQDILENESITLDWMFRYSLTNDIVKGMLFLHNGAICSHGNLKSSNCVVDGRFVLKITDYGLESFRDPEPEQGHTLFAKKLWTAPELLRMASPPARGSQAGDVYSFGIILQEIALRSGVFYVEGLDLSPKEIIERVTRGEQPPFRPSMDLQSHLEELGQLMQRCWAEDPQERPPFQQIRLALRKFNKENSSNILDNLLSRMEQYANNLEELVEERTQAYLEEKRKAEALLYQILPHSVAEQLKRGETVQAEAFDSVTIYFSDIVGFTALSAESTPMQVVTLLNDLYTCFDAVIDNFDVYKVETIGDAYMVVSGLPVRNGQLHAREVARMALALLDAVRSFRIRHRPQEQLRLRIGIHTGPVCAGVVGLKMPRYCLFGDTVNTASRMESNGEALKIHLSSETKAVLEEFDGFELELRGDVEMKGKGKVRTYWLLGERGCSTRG
As to the kind of experiment: cGMP generation in HEK cells expressing rat NPRA. It is filed as cell-based. As to conditions: mean ± SD.

Data set [3] in a line: Safety study in healthy volunteers: pharmacodynamic parameters (plasma cGMP). It is filed as in vivo, human. Particulars: human, in vivo, mean ± SD, read-out: t½ (converted). As to the method:
(§1) In a safety study, the mimetic of formula IV was administered to healthy volunteers. Doses of 0.1, 0.3, 0.7 and 1.0 μg/kg of the mimetic of formula IV were administered.
(§2) Kel is the apparent terminal elimination rate constant, calculated by linear regression of the terminal linear portion of the log concentration versus the time curve. The plasma cGMP concentrations returned to baseline levels by approximately 8 hours after dosing following 0.7 μg/kg and 1.0 μg/kg of the mimetic of formula IV.

A further data set deals with plasma cGMP. The description is as above. Particulars: mean ± SD. The data set is classed as in vivo, human. The procedure:
as §1, §2

Positions of bridges follow the written chain, without caps; N, C: chain ends. Non-standard residues stand in square brackets, D forms with d. Residues, ends and D or L forms follow the SMILES beside them. *: point of attachment. X1 = N=C(N)NCCC[C@H]1C(=O)N[C@@H](C(N)=O)CN1*; dNle = CCCC[C@@H](N)C(=O)O; Heptanoyl = CCCCCCC(=O)*

Method for human NPRA: Functional evaluation of natriuretic peptide mimetics was performed by measuring the accumulation of intracellular cGMP in HEK-293 cells that express recombinant hNPR-A. HEK-NPRA cells were harvested by washing and centrifugation in Cell Dissociation Buffer (Gibco, Life Technologies). Pelleted cells were resuspended in Hank's Balanced Salt Solution (HBSS) containing 10 mM Hepes (pH 7.4), 5 mM MgCl2, 200 mM L-glutamine, 1 mM 1,10-phenanthroline and BSA (0.5 mg/mL). Following centrifugation, cells were resuspended in the above buffer supplemented with 0.5 mM 3-isobutyl-1-methylxanthine (IBMX). […] The reaction was terminated by lysis of the cells with temperature shock. […] Accumulation of cGMP was measured using the cGMP Flashplate RIA (Perkin-Elmer). Data analysis and EC50 values were determined by using nonlinear regression analysis with GraphPad Prism® software.

Regarding `CC[C@H](C)[C@@H]1NC(=O)[C@H](CCCNC(=N)N)NC(=O)[C@H](CC(=O)O)NC(=O)[C@H](CC(C)C)NC(=O)[C@H](CCCCN)NC(=O)[C@H](CC(C)C)NC(=O)CNC(=O)[C@H](Cc2ccccc2)NC(=O)[C@@H](NC(=O)CNC(=O)[C@H](CCCCN)NC(=O)[C@H](CO)NC(=O)[C@H](CC(C)C)NC(=O)CN)CSSC[C@@H](C(=O)O)NC(=O)CNC(=O)[C@H](CC(C)C)NC(=O)CNC(=O)[C@H](CO)NC(=O)[C@H](CCSC)NC(=O)[C@H](CO)NC(=O)CNC1=O` [hCNP], the “reported human plasma half-life” value in data set [1] is “about 2 minutes”.

In general, Emax refers to the greatest response seen or fitted, relative to the assay's reference. On to `CCCCCCC(=O)N[C@H]1CSSC[C@@H](C(=O)N[C@@H](Cc2ccc(O)cc2)C(=O)N2C[C@H](C(N)=O)NC(=O)[C@@H]2CCCNC(=N)N)NC(=O)[C@H](CO)NC(=O)[C@H]([C@@H](C)CC)NC(=O)[C@H](CCCNC(=N)N)NC(=O)[C@H](CC(=O)O)NC(=O)[C@@H](CCCC)NC(=O)[C@H](CCCNC(=N)N)NC(=O)CNC(=O)[C@@H](C)NC(=O)[C@H](Cc2ccccc2)NC(=O)[C@H](Cc2c[nH]cn2)NC1=O` [mimetic of formula IV] (Heptanoyl-CHF[dA]GR[dNle]DRISCY-X1; disulfide 1-12), for which the half-life was about 3 h in data set [2], 3.03 ± 0.345 h in data set [3] (0.7 ug/kg) and 2.98 ± 3.61 h in data set [3] (1 ug/kg). The Emax was found to be 1 ± 1% on hNPRB (human NPRB) and 94 ± 8% at human NPRA (HEK293, hNPRA, read-out: hNPRA Function (cGMP) Emax (%)). Besides, the figures for the “Function (cGMP) Emax (% of ANP response)” value on human NPRA (human NPRA) and at rat NPRA were 94 ± 8 % of ANP response and 98 ± 7 % of ANP response, respectively. The entries for the “Kel (apparent terminal elimination rate constant)” value in the data set with plasma cGMP (dose 0.7 μg/kg) and in the data set with plasma cGMP (dose 1.0 μg/kg) were 0.231 ± 0.025 h⁻¹ and 1.05 ± 1.22 h⁻¹, respectively.

These data come from patent US20160354443A1, “Replacement Therapy for Natriuretic Peptide Deficiencies” (priority 2014, published 2016).
